“Also recorded” adds a separate entry of the source.
Tests used:
Assay type in all cases: cell-based, human
[1] = system: Fa2N-4 cells; assay: Morphological observation under an inverted microscope, Fa2N-4; conditions: 72 h; degraded and TAM at 72 h IC50, undegraded at highest concentration
Protocol: (§1) Approximately 2×10^5 cells were seeded in 2 mL of culture medium in 6-well plates (BD Labware, England) and incubated with 5% CO2 at 37°C for 24 h. The cells were then treated with degraded FGKC, DKC and CGKC at the appropriate concentrations to produce 50% cell viability at 72 hours as pre-determined by the MTT assay. For undegraded carrageenan, the highest concentration with longest treatment period (72 hours) was used to test on the cells. […] The morphology of the treated cells was observed under an inverted microscope at 200× magnification. The observed morphology was compared to the morphology of untreated cells.

[2] = system: PCNA, MKI67 and survivin gene expression in HepG2 cells; assay: RT-PCR gene expression analysis, HepG2; conditions: 72 h, degraded and tamoxifen at IC50, undegraded at 2000 μg mL^−1
Protocol: Reverse transcription polymerase chain reaction (RT-PCR) was used to analyze the presence of transcribed mRNA for cell proliferation gene marker. […] The extracted RNA was dissolved in DEPC-treated water. The RNA concentration and sample purity was determined using spectrophotometer (Bio Photometer plus, Eppendorf). Two steps RT-PCR were conducted where 1 μg of total RNA was used in the first strand cDNA synthesis using RevertAid First Strand cDNA Synthesis Kit (ThermoScientific, USA). Subsequent PCR reaction was done utilizing Mastercyler Gradient (Eppendorf, Germany). The expression of cell proliferation markers, e.g. PCNA, MKI67 and BIRC5 or known as survivin were analyzed with GAPDH gene acting as the endogenous control. […] PCR amplification were under the following conditions: initial denaturation at 95°C for 2 min, denaturation at 95°C for 1 min, primer annealing as stated in Table 1, extension at 72°C for 45 second, and final extension at 72°C for 5 min. […] The separated DNA fragments were visualized by ethidium bromide staining and photographed using the Alpha Imaging System (Alpha Innotech, San Leandro, CA, USA) under UV transillumination.

[3] = system: FHs 74 Int cells; assay: Morphological observation under an inverted microscope, FHs 74 Int; conditions: 72 h; degraded and TAM at 72 h IC50, undegraded at highest concentration
Protocol: as §1

[4] = system: HepG2 cells; assay: Acridine orange-ethidium bromide (AO/EtBr) staining, HepG2; conditions: 72 h; degraded k-carrageenan
Protocol: After the cells were harvested by trypsinisation, they were washed with PBS. A 25 μL sample of cells was stained with 10 μL of a mixture (1:1) of acridine orange and ethidium bromide solution. The concentration of AO/EtBr are […] in 1× PBS. After staining, the cells were viewed under a fluorescence microscope at 200× magnification (Leica DM 2500).

[5] = system: HepG2 cells; assay: DNA fragmentation by agarose gel electrophoresis, HepG2; conditions: 1% agarose gel
Protocol: Caco-2 and HepG2 cells treated with degraded FGKC, DKC and CGKC were lysed with lysis buffer (10 mM Tris–HCl, 5 mM EDTA, […], 0.2% SDS) and incubated at 60°C for 5 min. The RNA in each sample was digested with 10 μL of RNase at 37°C for 1 hour, and proteinase K (more than 3 U uL^−1) was added before incubating at 50°C for an additional 1.5 h. NaCl (5 M) was then added, and the samples were incubated on ice for 5 min to precipitate the protein. The cells were centrifuged for 15 min at highest speed at 4°C, after which supernatant was collected, and an equal volume of isopropanol was added to precipitate the DNA. Then, each sample was centrifuged again at 10,000 g for 10 min at 4°C. Supernatants were discarded, and the pellets were washed with 70% cold ethanol. The DNA sample was left to dry at room temperature before adding 1× TE buffer. Electrophoresis was carried out in a 1.0% (w/v) agarose gel for 1.5 h at 70 V. The gel was examined under UV transillumination following ethidium bromide staining to determine the extent of apoptotic DNA fragmentation.

[6] = system: HepG2 cells; assay: Morphological observation under an inverted microscope, HepG2; conditions: 72 h; degraded and TAM at 72 h IC50, undegraded at highest concentration
Protocol: as §1

## CC/C(=C(\c1ccccc1)c1ccc(OCCN(C)C)cc1)c1ccccc1 [TAM, Tamoxifen]
[1]
  Cell morphology before staining, Fa2N-4: cell shrinkage
[2]
  MKI67 gene expression, HepG2: lower than control; also recorded: undetectably low
  PCNA gene expression, HepG2: lower than control
  survivin gene expression, HepG2: lower than control; also recorded: not expressed
[3]
  Cell morphology before staining, FHs 74 Int: cell shrinkage
[4]
  Mode of cell death by AO/EtBr staining, HepG2: showed apoptosis
[5]
  DNA fragmentation (DNA ladder), HepG2: fragmented
[6]
  Cell morphology before staining, HepG2: cell shrinkage

— paper PMC4320596, “Cytotoxicity effect of degraded and undegraded kappa and iota carrageenan in human intestine and liver cell lines” (BMC Complementary and Alternative Medicine, 2014)
